Measured values taken from patent publication US8071318B2, “High throughput method and system for screening candidate compounds for activity against target ion channels” (Vertex Pharmaceuticals (San Diego) LLC, priority 2000, dated 2011).

What was measured:
[1] = system: voltage-activated chloride and potassium channels of wild-type HEK-293 cells
[2] = system: HL5 cells; assay type: cell-based
[3] = biological target: IRK1 potassium inward rectifier channel (Rattus norvegicus, UniProt Q64273)
IRK1 potassium inward rectifier channel, sequence (Q64273 whole entry): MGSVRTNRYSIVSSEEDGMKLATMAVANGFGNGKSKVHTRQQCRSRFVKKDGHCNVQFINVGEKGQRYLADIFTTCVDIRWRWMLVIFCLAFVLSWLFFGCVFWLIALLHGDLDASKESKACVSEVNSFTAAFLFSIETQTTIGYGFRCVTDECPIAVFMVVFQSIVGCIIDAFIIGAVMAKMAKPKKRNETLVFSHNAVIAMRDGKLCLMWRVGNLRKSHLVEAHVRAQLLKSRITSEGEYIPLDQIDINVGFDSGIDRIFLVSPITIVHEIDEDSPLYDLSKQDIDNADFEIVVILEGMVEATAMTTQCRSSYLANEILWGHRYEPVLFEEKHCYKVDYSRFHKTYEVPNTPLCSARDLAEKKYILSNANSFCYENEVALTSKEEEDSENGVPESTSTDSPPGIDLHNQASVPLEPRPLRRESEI

## CC[N+](CC)(CC)CC [TEA, Tetraethylammonium]
[1]
  block of the negative voltage response: partially blocks the response

## NC1=N[C@H](O)[C@H]2[C@H]3O[C@]4(O)O[C@@H]([C@@H](O)[C@@]2(N1)[C@@H]4O)[C@]3(O)CO [TTX, tetrodotoxin]
[2]
  effect on the sustained signal: unaffected

## [Ba+2].[Cl-].[Cl-] [barium chloride]
[3]
  voltage change during stimulation with block: no detectable voltage change during stimulation until the field reaches 80 V/cm
